The text below walks through data of patent publication US20100119512A1, “METHODS OF DIAGNOSING, TREATING, AND PREVENTING INCREASED VASCULAR PERMEABILITY” (Joslin Diabetes Center, priority 2007, published 2010).

In assay [1] the test system is prekallikrein (PK) activation by FXII. Description: PK activation by FXII in the presence of HK, fluorogenic kallikrein substrate. It counts as biochemical, human. To be noted: for effect on kallikrein activation in vitro: PK activation by FXII in the presence of HK.
Experimental: FIG. 2 is a line graph illustrating the effect of varying concentrations of C1-INH on PK activation by FXII in the presence of HK. Kallikrein activity was measured as cleavage of synthetic fluorogenic kallikrein substrate (0.4 mM) on a microplate reader at 37° C. at 15 minutes (means±s.e.m.; n=4).
FIG. 3 is line graph illustrating the effect of varying concentrations of anti-PK antibody on PK activation by FXII in the presence of HK (means±s.e.m. n=5-6).
The effects of C1-INH and anti-PK antibody on the kinetics of PK activation by factor XII (FXII) were monitored in vitro using a fluorescent kallikrein substrate. Fluorogenic kallikrein substrate (H-D-Val-Leu-Arg-AFC; Calbiochem) was used to quantify kallikrein enzymatic activity.
Assay [2] relates to retinal vascular permeability. As to conditions: rats, cited from earlier work.

On to “CA-I: human erythrocyte CA-I (Sigma), carbonic anhydrase 1”, for which the “effect on kallikrein activation in vitro” value in assay [1] is “Neither CA-I or bicarbonate ion affected”. In addition, the “effect of intravitreal injection on retinal vascular permeability” value in assay [2] (intravitreal) is reported as “increased”.

Consider `CC(=O)Nc1nnc(S(N)(=O)=O)s1` [acetazolamide, reference compound], for which the “effect on increased retinal permeability induced by transplant of vitreous from patients with advanced diabetic retinopathy” value in assay [2] is on record as “blocked”. Regarding `O=C(O)O` [bicarbonate ion], the “effect on kallikrein activation in vitro” value in assay [1] is “Neither CA-I or bicarbonate ion affected”.

B1: C1-INH: C1 inhibitor; binds covalently to the active site of FXII (protein, UniProt P05155 23-500, looked up)
Plasma protease C1 inhibitor: NPNATSSSSQDPESLQDRGEGKVATTVISKMLFVEPILEVSSLPTTNSTTNSATKITANTTDEPTTQPTTEPTTQPTIQPTQPTTQLPTDSPTQPTTGSFCPGPVTLCSDLESHSTEAVLGDALVDFSLKLYHAFSAMKKVETNMAFSPFSIASLLTQVLLGAGENTKTNLESILSYPKDFTCVHQALKGFTTKGVTSVSQIFHSPDLAIRDTFVNASRTLYSSSPRVLSNNSDANLELINTWVAKNTNNKISRLLDSLPSDTRLVLLNAIYLSAKWKTTFDPKKTRMEPFHFKNSVIKVPMMNSKKYPVAHFIDQTLKAKVGQLQLSHNLSLVILVPQNLKHRLEDMEQALSPSVFKAIMEKLEMSKFQPTLLTLPRIKVTTSQDMLSIMEKLEFFDFSYDLNLCGLTEDPDLQVSAMQHQTVLELTETGVEAAAASAISVARTLLVFEVQQPFLFVLWDQQHKFPVFMGRVYDPRA
With B1, the “effect on PK activation (kallikrein activity)” value in assay [1] (varying concentrations, FXII and HK present, fluorogenic kallikrein substrate 0.4 mM, 37° C., 15 minutes) is given as “inhibited”. Further, the “effect on CA-1-induced retinal vascular permeability” value in assay [2] (intravitreal CA-1) is reported as “blocked”.
